Tests used:
human EAAT3 = molecular target: T1, human EAAT3 (Homo sapiens, UniProt P43005); assay: FLIPR Membrane Potential (FMP) assay, antagonist potency at human EAAT3; format: cell-based; details: HEK-293 cells stably expressing human EAAT3; L-glutamate as agonist at EC80; Kb from IC50 by Cheng-Prusoff equation
T1 construct: expressed in transfected cells
T1 sequence (P43005 1-524): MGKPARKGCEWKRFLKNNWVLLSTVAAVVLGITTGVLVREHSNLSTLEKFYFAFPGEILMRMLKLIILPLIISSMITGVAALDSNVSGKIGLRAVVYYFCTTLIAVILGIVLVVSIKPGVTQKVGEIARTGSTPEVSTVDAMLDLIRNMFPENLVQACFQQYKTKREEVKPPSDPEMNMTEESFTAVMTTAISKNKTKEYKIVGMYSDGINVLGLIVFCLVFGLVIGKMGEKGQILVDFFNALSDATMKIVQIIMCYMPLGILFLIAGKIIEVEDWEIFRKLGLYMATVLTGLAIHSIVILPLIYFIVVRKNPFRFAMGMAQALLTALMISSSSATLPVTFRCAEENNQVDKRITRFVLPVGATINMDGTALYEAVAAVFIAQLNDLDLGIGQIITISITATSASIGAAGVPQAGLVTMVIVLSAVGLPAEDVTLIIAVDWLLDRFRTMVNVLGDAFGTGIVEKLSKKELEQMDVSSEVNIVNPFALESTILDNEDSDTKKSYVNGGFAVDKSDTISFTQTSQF
Method: The FLIPR Membrane Potential (FMP) Assay
HEK-293 cells stably expressing human EAAT3 were seeded at 55 000 cells/well in growth medium (DMEM glutamate free (Invitrogen 11960-044), 1% Pen Strep (10 ml/l GIBCO BRL N°15140-023), 10% FCS non dialysed heat inactivated, 5 mg/l puromycin) in poly-D-lysine treated 96-well black microtiter plates with clear-bottom. After 24 h, the growth medium was removed and 100 μl/well of Krebs buffer (140 mM NaCl, 4.7 mM KCl, 2.5 mM CaCl2, 1.2 mM MgCl2, 11 mM HEPES, 10 mM D-glucose, pH=7.4) added. The cells were then loaded by adding 100 μl/well FMP assay dye (FLIPR Membrane Potential assay reagent, Molecular Devices). The 96-well plates were then incubated at 37° C. for 1 h. The depolarization of the cells will cause more dye to enter in the cells, where it will bind to intracellular proteins and lipids and cause an increase in the fluorescence signal. Antagonist potency at human EAAT3 was determined by using L-glutamate as agonist at a concentration which gives 80% of the maximum response. The antagonists were applied 15 min before the application of the agonist L-glutamate. The assays were performed at room temperature and measurements done by using a Fluorometric Imaging Plate Reader (FLIPR, Molecular Devices) and filter #2. Responses were measured as peak increase in fluorescence minus basal (i.e. fluorescence without addition of L-glutamate). Kb was determined using the Cheng-Prusoff equation Kb=IC50/[1+(A/EC50)], where IC50 is the concentration of the antagonist producing 50% inhibition, A is the concentration of the agonist against which the IC50 is being determined (at EC80) and EC50 is the concentration of the agonist producing 50% […].

Structure (SMILES) | melting point [°C] | Kb (human EAAT3) [nM]
CC1(NC(=O)c2cc(-c3ccc(Cl)cc3)cc(-n3cnnc3CO)c2)CCS(=O)(=O)C1 (racemic) [Example 36, (RS)-3-(4-Chlorophenyl)-5-[3-(hydroxymethyl)-1,2,4-triazol-4-yl]-N-(3-methyl-1,1-dioxothiolan-3-yl)-benzamide] | 161.5 | 1570
CCC(C)(C)NC(=O)c1cc(-c2ccc(F)cc2)cc(-n2cnnc2)c1 [Example 1, 3-(4-Fluorophenyl)-N-(2-methylbutan-2-yl)-5-(1,2,4-triazol-4-yl)-benzamide] | 212 | 88
CC(C)(C)NC(=O)c1cc(-c2ccc(F)cc2)cc(-n2cnnc2)c1 [Example 2, N-tert-Butyl-3-(4-fluorophenyl)-5-(1,2,4-triazol-4-yl)-benzamide] | 204 | 290
CC(C)(NC(=O)c1cc(-c2ccc(F)cc2)cc(-n2cnnc2)c1)C1CC1 [Example 3, N-(2-Cyclopropylpropan-2-yl)-3-(4-fluorophenyl)-5-(1,2,4-triazol-4-yl)-benzamide] | 135.5 | 390
CC(C)(NC(=O)c1cc(-c2ccc(F)cc2)cc(-n2cnnc2)c1)C(F)(F)F [Example 4, 3-(4-Fluorophenyl)-5-(1,2,4-triazol-4-yl)-N-(1,1,1-trifluoro-2-methylpropan-2-yl)-benzamide] | 147 | 250
Cc1nncn1-c1cc(C(=O)NC(C)(C)C)cc(-c2ccc(F)cc2)c1 [Example 5, N-tert-Butyl-3-(4-fluorophenyl)-5-(3-methyl-1,2,4-triazol-4-yl)-benzamide] | 235.5 | 160
Cc1nncn1-c1cc(C(=O)NC(C)(C)C)cc(-c2ccc(Cl)cc2)c1 [Example 6, N-tert-Butyl-3-(4-chlorophenyl)-5-(3-methyl-1,2,4-triazol-4-yl)-benzamide] | 241 | 76
Cc1nncn1-c1cc(C(=O)NC(C)(C)C)cc(-c2ccc(C(F)(F)F)cc2)c1 [Example 7, N-tert-Butyl-3-(3-methyl-1,2,4-triazol-4-yl)-5-[4-(trifluoromethyl)-phenyl]-benzamide] | 225.5 | 130
CC(C)(C)NC(=O)c1cc(-c2ccc(F)cc2)cc(-n2cnnc2C(C)(C)C)c1 [Example 8, N-tert-Butyl-3-(3-tert-butyl-1,2,4-triazol-4-yl)-5-(4-fluorophenyl)-benzamide] | 279 | 190
CC(C)(C)NC(=O)c1cc(-c2ccc(Cl)cc2)cc(-n2cnnc2C(C)(C)C)c1 [Example 9, N-tert-Butyl-3-(3-tert-butyl-1,2,4-triazol-4-yl)-5-(4-chlorophenyl)-benzamide] | 292.5 | 180
CC(C)(C)NC(=O)c1cc(-c2ccc(C(F)(F)F)cc2)cc(-n2cnnc2C(C)(C)C)c1 [Example 10, N-tert-Butyl-3-(3-tert-butyl-1,2,4-triazol-4-yl)-5-[4-(trifluoromethyl)-phenyl]-benzamide] | 280.5 | 160
CC(C)(C)c1nncn1-c1cc(C(=O)NC(C)(C)C2CC2)cc(-c2ccc(C(F)(F)F)cc2)c1 [Example 11, 3-(3-tert-Butyl-1,2,4-triazol-4-yl)-N-(2-cyclopropylpropan-2-yl)-5-[4-(trifluoromethyl)-phenyl]-benzamide] | 242.5 | 180
CC(C)(C)c1nncn1-c1cc(C(=O)NC(C)(C)C2CC2)cc(-c2ccc(F)cc2)c1 [Example 12, 3-(3-tert-Butyl-1,2,4-triazol-4-yl)-N-(2-cyclopropylpropan-2-yl)-5-(4-fluorophenyl)-benzamide] | 111 | 150
CC(C)(C)c1nncn1-c1cc(C(=O)NC(C)(C)C2CC2)cc(-c2ccc(Cl)cc2)c1 [Example 13, 3-(3-tert-Butyl-1,2,4-triazol-4-yl)-5-(4-chlorophenyl)-N-(2-cyclopropylpropan-2-yl)-benzamide] | 136.5 | 290
CC(C)c1nncn1-c1cc(C(=O)NC(C)(C)C)cc(-c2ccc(F)cc2)c1 [Example 14, N-tert-Butyl-3-(4-fluorophenyl)-5-(3-propan-2-yl-1,2,4-triazol-4-yl)-benzamide] | 240.5 | 75
CC(C)c1nncn1-c1cc(C(=O)NC(C)(C)C)cc(-c2ccc(Cl)cc2)c1 [Example 15, N-tert-Butyl-3-(4-chlorophenyl)-5-(3-propan-2-yl-1,2,4-triazol-4-yl)-benzamide] | 239.5 | 75
CC(C)c1nncn1-c1cc(C(=O)NC(C)(C)C2CC2)cc(-c2ccc(F)cc2)c1 [Example 16, N-(2-Cyclopropylpropan-2-yl)-3-(4-fluorophenyl)-5-(3-propan-2-yl-1,2,4-triazol-4-yl)-benzamide] | 101 | 100
CC(C)c1nncn1-c1cc(C(=O)NC(C)(C)C2CC2)cc(-c2ccc(Cl)cc2)c1 [Example 17, 3-(4-Chlorophenyl)-N-(2-cyclopropyl-propan-2-yl)-5-(3-propan-2-yl-1,2,4-triazol-4-yl)-benzamide] | 105 | 190
CC(C)c1nncn1-c1cc(C(=O)NC(C)(C)C)cc(-c2ccc(C(F)(F)F)cc2)c1 [Example 18, N-tert-Butyl-3-(3-propan-2-yl-1,2,4-triazol-4-yl)-5-[4-(trifluoromethyl)-phenyl]-benzamide] | 126 | 130
CC(C)c1nncn1-c1cc(C(=O)NC(C)(C)C2CC2)cc(-c2ccc(C(F)(F)F)cc2)c1 [Example 19, N-(2-Cyclopropyl-propan-2-yl)-3-(3-propan-2-yl-1,2,4-triazol-4-yl)-5-[4-(trifluoromethyl)-phenyl]-benzamide] | 100 | 220
CC(C)c1nncn1-c1cc(C(=O)NC(C)(C)CO)cc(-c2ccc(F)cc2)c1 [Example 20, 3-(4-Fluorophenyl)-N-(1-hydroxy-2-methylpropan-2-yl)-5-(3-propan-2-yl-1,2,4-triazol-4-yl)-benzamide] | 171.5 | 390
CC(C)c1nncn1-c1cc(C(=O)NC(C)(C)CO)cc(-c2ccc(Cl)cc2)c1 [Example 21, 3-(4-Chlorophenyl)-N-(1-hydroxy-2-methylpropan-2-yl)-5-(3-propan-2-yl-1,2,4-triazol-4-yl)-benzamide] | 180 | 230
CC(C)c1nncn1-c1cc(C(=O)NC(C)(C)CO)cc(-c2ccc(C(F)(F)F)cc2)c1 [Example 22, N-(1-hydroxy-2-methylpropan-2-yl)-3-(3-propan-2-yl-1,2,4-triazol-4-yl)-5-[4-(trifluoromethyl)-phenyl]-benzamide] | 214 | 330
CCC(C)(C)NC(=O)c1cc(-c2ccc(C(F)(F)F)cc2)cc(-n2cnnc2C(C)C)c1 [Example 23, N-(2-Methylbutan-2-yl)-3-(3-propan-2-yl-1,2,4-triazol-4-yl)-5-[4-(trifluoromethyl)-phenyl]-benzamide] | 104 | 94
CCC(C)(C)NC(=O)c1cc(-c2ccc(F)cc2)cc(-n2cnnc2C(C)C)c1 [Example 24, 3-(4-Fluorophenyl)-N-(2-methylbutan-2-yl)-5-(3-propan-2-yl-1,2,4-triazol-4-yl)-benzamide] | 95 | 54
CCC(C)(C)NC(=O)c1cc(-c2ccc(Cl)cc2)cc(-n2cnnc2C(C)C)c1 [Example 25, 3-(4-Chlorophenyl)-N-(2-methylbutan-2-yl)-5-(3-propan-2-yl-1,2,4-triazol-4-yl)-benzamide] | 103 | 120
CC(C)(C)NC(=O)c1cc(-c2ccc(Cl)cc2)cc(-n2cnnc2CO)c1 [Example 26, N-tert-Butyl-3-(4-chlorophenyl)-5-[3-(hydroxymethyl)-1,2,4-triazol-4-yl]-benzamide] | 210 | 145
